As usually defined, the Ki is the equilibrium dissociation constant of an inhibitor or competing ligand from its target.

For data set [1], the target named is T1, VAChT (Rattus norvegicus, UniProt Q62666).
T1 construct: The entire brain was sampled and dissected in different regions: cortex, striatum, hippocampus, thalamus and cerebellum; from tissue; host or cells: brain regions of male Wistar rats (in vivo tracer injection, ex vivo counting)
T1 sequence (Q62666 1-530): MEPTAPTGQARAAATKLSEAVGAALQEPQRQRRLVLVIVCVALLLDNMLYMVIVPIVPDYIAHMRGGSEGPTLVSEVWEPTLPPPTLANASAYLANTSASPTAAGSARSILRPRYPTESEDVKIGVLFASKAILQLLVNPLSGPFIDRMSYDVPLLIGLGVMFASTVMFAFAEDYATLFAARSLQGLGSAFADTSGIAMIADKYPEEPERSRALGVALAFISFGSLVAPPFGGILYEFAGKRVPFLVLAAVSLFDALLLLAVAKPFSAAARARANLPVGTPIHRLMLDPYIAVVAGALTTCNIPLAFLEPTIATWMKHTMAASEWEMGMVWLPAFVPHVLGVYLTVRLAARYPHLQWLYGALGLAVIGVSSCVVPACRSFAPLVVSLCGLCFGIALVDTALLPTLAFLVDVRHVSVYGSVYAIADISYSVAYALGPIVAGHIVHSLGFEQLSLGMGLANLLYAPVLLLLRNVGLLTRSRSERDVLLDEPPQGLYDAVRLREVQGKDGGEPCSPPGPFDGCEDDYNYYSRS
Nature of the data set: Radioligand ([3H]vesamicol) binding on rat brain membrane preparation, affinity for VAChT. The settings on record: rat brain membranes, mean ± standard deviation of 3 independent experiments, Cheng & Prussoff. The method, then:
Measurement of the affinity of the different compounds for VAChT was obtained by radioligand binding method on rat brain membrane preparation, following the method described in Scheunemann et al. (Bioorg Med Chem 2004;12:1459-65). The L-(−)-vesamicol was supplied by Sigma Aldrich (Saint-Quentin-Fallavier, France) and [^3H]vesamicol (specific activity 1705.7 GBq/mmol) by Perkin-Elmer (Courtaboeuf, France). The IC50 values were determined graphically for each compound and Ki (inhibition constant) was calculated following the method of Cheng & Prussoff (Biochemical pharmacology 1973;22:3099-108). The results are expressed as a mean of Ki values±standard deviation from the mean after 3 independent experiments.

Data set [2] has as its target T1, VAChT. In words: Biodistribution: cerebral accumulation of the tracers in the rat. Format: in vivo. The following applies: for Striatum/cerebellum accumulation ratio / Cerebral accumulation, cerebellum / Cerebral accumulation, striatum: 2 hours after i.v. injection of the tracer; for Cerebral accumulation, cerebellum / Cerebral accumulation, striatum: ± SEM, n=6/group. On the procedure: Animals: The experiments were conducted in male rates of Wistar strain weighing 250-300 g (Breeding Centre R. Janvier, Le Genest St Isle, France). All procedures were carried out paying heed to European regulations on animal experimentation (2010/63/EU) with authorisation from the regional ethics committee on animal experiments: Comité Régional d'Ethique en Expérimentation Animale.
Biodistribution studies: The rats in the control group were given an i.v. injection of tracer (4-6 MBq in 0.3 mL) under isoflurane gas anaesthesia (n=6/group). In the VES group (n=6/group), injection of the tracer was preceded (5 min) by an i.v. injection of vesamicol (0.5 μmol/kg). The rats were sacrificed by decapitation 2 h after injection of the tracer. The entire brain was sampled and dissected in different regions: cortex, striatum, hippocampus, thalamus and cerebellum. Blood and bone fractions were also sampled. The biological samples were weighed, the radioactivity thereof was measured with a γ counter (2480 Gamma counter Wizard, Perkin Elmer), and the percentage of injected dose/g of tissue (% ID/g) was calculated.

Take `O[C@@H]1Cc2cccc(F)c2C[C@H]1N1CCC(c2ccccc2)CC1` [(−)-(R,R)-5-FBVM E1, (2R,3R)-5-Fluoro-3-(4-phenylpiperidin-1-yl)-1,2,3,4-tetrahydronaphthalen-2-ol]: the Ki at VAChT [1] was 0.9 nM. That is a sub-nanomolar value.

In turn, `OC1Cc2cccc(F)c2CC1N1CCC(c2ccccc2)CC1` (racemic) [rac (+/−)-5-FBVM Trans, 5-Fluoro-3-(4-phenylpiperidin-1-yl)-1,2,3,4-tetrahydronaphthalen-2-ol] showed a Ki at VAChT [1] of 1.3 nM. In addition, at VAChT [2] (in vivo PET tracer in the rat), the In vivo stability result is on record as “good” and the “Passing through the blood-brain barrier” value was “excellent”.

As for `OC1Cc2cccc(OCCF)c2CC1N1CCC(c2ccccc2)CC1` (stereo not shown) [[^18F]FEOBV, 5-fluoroethoxybenzovesamicol, reference compound], on VAChT [2] (rat), the Striatum/cerebellum accumulation ratio is 3.59; the “Cerebral accumulation, cerebellum” value is on record as 0.844 ± 0.025 % ID/g; the “Cerebral accumulation, striatum” value is listed as 0.235 ± 0.011 % ID/g.

For `O[C@H]1Cc2cccc(F)c2C[C@@H]1N1CCC(c2ccccc2)CC1` [(+)-(S,S)-5-FBVM. E2, (2S,3S)-5-Fluoro-3-(4-phenylpiperidin-1-yl)-1,2,3,4-tetrahydronaphthalen-2-ol], the inhibitory constant (Ki) at VAChT [1] was determined as 35 nM. This lies in the double-digit nanomolar range.

Turning to `O[C@H]1Cc2cccc([18F])c2C[C@@H]1N1CCC(c2ccccc2)CC1` [(+)-(S,S)-5-[^18F]FBVM ^18F E2], on VAChT [2] (rat), the Striatum/cerebellum accumulation ratio was 1.52; the “Cerebral accumulation, cerebellum” value worked out at 0.215 ± 0.011 % ID/g; the “Cerebral accumulation, striatum” value was found to be 0.327 ± 0.015 % ID/g.

Consider `O[C@@H]1Cc2cccc([18F])c2C[C@H]1N1CCC(c2ccccc2)CC1` [(−)-(R,R)-5-FBVM ^18F E1], for which, at VAChT [2] (rat), the Striatum/cerebellum accumulation ratio was determined as 5.84; the “Cerebral accumulation, cerebellum” value is 0.232 ± 0.017 % ID/g; the “Cerebral accumulation, striatum” value is listed as 1.356 ± 0.069 % ID/g. The “Reduction of accumulation in the striatum after (−)vesamicol pre-administration” value at VAChT [2] (rat, (−)vesamicol 0.5 μmole/kg, 5 minutes before injection of the tracer) is recorded as 46%.

`OC1Cc2cccc(OCCF)c2CC1N1CCC(c2ccccc2)CC1` (single isomer, unassigned; (-)) [(−)-FEOBV, 5-fluoroethoxybenzovesamicol, reference compound]: affinity on VAChT [1] was put at a Ki of 61 ± 2.8 nM.
